Data published in patent US20080113956A1, “Substituted Porphyrins” (priority 1997, published 2008).

System: isolated, perfused mouse liver
Test: Isolated, perfused mouse liver, global ischemia/reperfusion injury
Conditions: 10 μm in perfusate
Procedure: The ability of Mn TE-2-PyP to attenuate injury associated with 60 minutes of global ischemia followed by 90 minutes of reperfusion was assessed in an isolated, perfused mouse liver model. Excised livers were perfused with a buffered salt solution for 15 minutes after which the metalloporphyrin was introduced into the perfusate and the liver perfused in a recirculating system for an additional 15 minutes. The livers were then rendered globally ischemic under normal thermic conditions for 60 minutes. Following the ischemic period the livers were perfused for 90 minutes with perfusate supplemented with 10 μm Mn TE-2-PyP. In this model the ischemia/reperfused livers have a marked release of hepatocellular enzymes, aspartate transaminase, alanine transaminase, and lactate dehydrogenase during the first 2½ minutes of reperfusion. This is followed by a progressive release of hepatocellular enzymes indicating hepatocellular injury over the 90 minute perfusion period. […] At the end of the experiments liver […]. […] They remain firm and with a normal texture to gross morphologic examination.

## CC[n+]1ccccc1-c1c2nc(c(-c3cccc[n+]3CC)c3ccc([n-]3)c(-c3cccc[n+]3CC)c3nc(c(-c4cccc[n+]4CC)c4ccc1[n-]4)C=C3)C=C2.[Mn+3] [MnTE-2-PyP^5+, manganic meso-tetrakis-(N-ethylpyridinium-2-yl)porphyrin]
60 minutes global ischemia, 90 minutes reperfusion
  attenuation of liver injury: highly efficacious in attenuating the liver injury
First 2½ minutes of reperfusion
  acute hepatocellular enzyme release: blocking virtually all
Over the 90 minute perfusion period
  progressive hepatocellular enzyme release: blocking progressive hepatocellular enzyme release
